In PMC6934184, “Selective DNA-PKcs inhibition extends the therapeutic index of localized radiotherapy and chemotherapy” (The Journal of Clinical Investigation, 2019):

Molecular target: T1, NTRK3 (TRKC) (Homo sapiens, UniProt Q16288)
T1 construct: purchased Thermo Fisher Scientific (Life Technologies) SelectScreen
Assay: SelectScreen Z'LYTE
Assay type: biochemical
Summary of the method: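 NU5455 was profiled across the SelectScreen Broad panel of kinase activity and binding assays. Z'LYTE reactions such as CSF1R ran at apparent Km ATP, while the Adapta CAMK1 assay used ATP listed as 10. Values are given as percent.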

T1 sequence (Q16288 32-839): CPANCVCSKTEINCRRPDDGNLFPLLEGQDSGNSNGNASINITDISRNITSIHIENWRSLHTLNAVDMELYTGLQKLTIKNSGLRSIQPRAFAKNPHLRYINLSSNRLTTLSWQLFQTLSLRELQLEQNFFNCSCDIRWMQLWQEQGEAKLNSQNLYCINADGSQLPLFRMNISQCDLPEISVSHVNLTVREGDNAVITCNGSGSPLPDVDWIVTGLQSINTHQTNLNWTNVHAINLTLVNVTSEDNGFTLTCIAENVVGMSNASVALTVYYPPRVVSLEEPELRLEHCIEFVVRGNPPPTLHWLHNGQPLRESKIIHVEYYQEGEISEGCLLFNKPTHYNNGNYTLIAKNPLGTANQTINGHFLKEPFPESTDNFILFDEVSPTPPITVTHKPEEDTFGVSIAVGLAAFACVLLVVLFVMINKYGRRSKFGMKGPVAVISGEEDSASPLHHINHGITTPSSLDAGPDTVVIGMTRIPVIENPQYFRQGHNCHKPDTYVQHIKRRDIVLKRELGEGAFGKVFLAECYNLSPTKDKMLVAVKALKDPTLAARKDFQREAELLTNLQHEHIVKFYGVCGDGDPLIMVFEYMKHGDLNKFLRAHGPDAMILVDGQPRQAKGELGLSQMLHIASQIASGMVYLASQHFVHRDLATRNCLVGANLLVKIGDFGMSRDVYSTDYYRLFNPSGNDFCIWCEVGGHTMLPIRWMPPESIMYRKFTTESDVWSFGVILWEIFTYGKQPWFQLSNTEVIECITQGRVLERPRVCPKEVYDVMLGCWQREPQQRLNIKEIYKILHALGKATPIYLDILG

**Q.** For `CN(C(=O)CN1CCOCC1)c1ccc2sc3c(-c4cccc5c(=O)cc(N6CC7CCC(C6)O7)oc45)cccc3c2c1` [NU5455], which inhibition at 1 µM is on record?
**A.** The inhibition at 1 µM was 0.4%.
